Laboratory results published in patent publication US20130052162A1, “BOOSTING IMMUNE DEFENSE BY UPREGULATING CCAAT/ENHANCER BINDING PROTEIN EPSILON” (CEDARS-SINAI MEDICAL CENTER, priority 2010, published 2013).
Several values for one entry are separate records, joined by “and”; a condition that tells them apart may be missing. Equal entries are not always repeated. Entries after “also recorded” stand apart in the source; their conditions may differ.

Key:
[1] = CBC of peripheral whole blood of WT mice treated in vivo with NAM; parameters: species or system mouse
Protocol: WT mice treated in vivo with NAM (250 mg/kg/day; i.p.) or PBS (control) for a) 24 h, b) 48 h, and c) 72 h. Then, peripheral whole blood was removed from each of the mice and CBCs were performed. […] (Table 2A-C)

CEBPE promoter region = assay: ChIP: histone H3 acetylation at CEBPE promoter in human PMNs from NAM-treated blood; format: cell-based; settings: blood treated with 1 mM NAM, 12 h
Protocol: ChIP assay kit (Upstate Biotechnology, Lake Placid, N.Y.) was used, and chromatin was prepared for IP as instructed by the manufacturer. The sonicated chromatin was immunoprecipitated with either 5 μg of anti-acetylated histone H3 antibody or normal rabbit IgG antibody as negative control (Upstate Biotechnology). Immunoprecipitated DNA was subsequently analyzed by PCR using primers specific for the CEBPE promoter region; input chromatin was analyzed for β-actin mRNA as a positive control. The optimal reaction conditions for PCR were determined for each primer pair. Primers were denatured at 95° C. for 1 min and annealed at 60° C. for 1 min, followed by elongation at 72° C. for 1 min; each product was amplified 35 cycles. PCR products were analyzed by 2.5% agarose/ethidium bromide gel electrophoresis. […] The primers used for ChIP analysis were: human CEBPE 5′-GCTTTGGCCAAGCCCAGGGA-3′ (forward) (SEQ ID NO: 9), 5′-TGCTGGGCTCCACCTACCCC-3′ (reverse) (SEQ ID NO: 10); human β-actin: 5′-CTCCTCGGGAGCCACACGCA-3′ (forward) (SEQ ID NO: 1), 5′-TAGGGGAGCTGGCTGGGTGG-3′ (reverse) (SEQ ID NO: 12); murine CEBPE: 5′-TGAGGCTGCAGCTTGCCTGG-3′ (forward) (SEQ ID NO: 13), 5′-ACCAAGCTACCCCTGGCCCT-3′ (reverse) (SEQ ID NO: 14), murine β-actin: 5′-ACCTGTTACTTTGGGAGTGGCAAGC-3′ (forward) (SEQ ID NO: 15), 5′-GTCGTCCCAGTTGCTAACAATGCC-3′ (reverse) (SEQ ID NO: 16). […]

S. aureus = assay: Effect of NAM on growth and viability of S. aureus; format: cell-based, Staphylococcus aureus; settings: 6 h
Protocol: The inventors assessed whether NAM, at the concentrations used in the study, adversely affect the growth and viability of S. aureus. PBS was chosen as an inert non-growth medium, and THB was chosen as a suitable growth medium for S. aureus. Seventy-five microliters of NAM (1 mM and 10 mM final concentrations; in either THB or PBS) or THB or PBS alone (respective controls) were placed in sterile 2 mL round-bottom Eppendorf tubes, and then inoculated with S. aureus (˜1×10^4 CFU/mL in 25 μl of PBS or THB) and immediately briefly vortexed. Triplicate reactions were incubated at 37° C. for 1 h, 3 h, and 6 h on a rotary shaker at which time ten-fold serial dilutions were plated on THIA for enumeration of CFU.
In a different assay, S. aureus (˜1×10^8 CFU/mL in THB) was incubated with or without 50 mM NAM. This concentration represents the equivalent molarity of NAM used in the in vivo experiments. Triplicate 1 mL reactions were incubated at 37° C. on a rotary shaker and at various time points (6 h, 12 h, and 24 h) ten-fold serial dilutions were plated on THA for enumeration of CFU. This assay was performed on two independent occasions using inocula generated from three separate bacterial cultures.

[2] = 24 h post-treatment, 250 mg/kg/d, individual mice, 250 mg/kg/day

With NC(=O)c1cccnc1 [NAM, Nicotinamide] the “Hematological Abnormalities” value ([1]; 24 h post-treatment, 250 mg/kg/d, individual mice) was “Normal”, the LY [1, 2] was 3.97 K/uL and 1.89 K/uL and 3.84 K/uL and 76.92% and 67.88% and 71.36% and the MO [1, 2] was 0.18 K/uL and 0.28 K/uL and 3.77% and 6.47% and 5.28%. For the same compound, the NE [1, 2] was 0.95 K/uL and 0.65 K/uL and 1.00 K/uL and 18.47% and 23.40% and 18.67%, the WBC [1, 2] was 5.16 K/uL and 2.78 K/uL and 5.38 K/uL and the “WBC, Mean” value ([1]; 24 h post-treatment, 250 mg/kg/d, mean of 10 mice) was 3.63 K/uL. For the same compound, the “Hematological Abnormalities” value ([1]; 48 h post-treatment, 250 mg/kg/d, individual mice) was “Normal”, the WBC ([1]; 48 h post-treatment, 250 mg/kg/d, individual mice, 250 mg/kg/day) was 6.34 K/uL and 1.86 K/uL and 3.30 K/uL and 4.64 K/uL and 2.70 K/uL and the “WBC, Mean” value ([1]; 48 h post-treatment, 250 mg/kg/d, mean of 5 mice) was 3.77 K/uL. The “Hematological Abnormalities” value ([1]; 72 h post-treatment, 250 mg/kg/d, individual mice) was “Normal”, the WBC ([1]; 72 h post-treatment, 250 mg/kg/d, individual mice, 250 mg/kg/day) was 2.20 K/uL and 4.08 K/uL and 5.66 K/uL and 2.24 K/uL and 3.62 K/uL and 6.22 K/uL and 3.06 K/uL and 5.48 K/uL and the “WBC, Mean” value ([1]; 72 h post-treatment, 250 mg/kg/d, mean of 8 mice) was 4.07 K/uL. For the same compound, the “CBCs, NAM- vs PBS-treated mice” value ([1]; mouse, in vivo) was “No differences in CBCs”, the “increase in histone H3 acetylation at the CEBPE promoter” value (CEBPE promoter region) was 5 fold and the “direct anti-staphylococcal activity (CFU vs control)” value (S. aureus; 1 mM and 10 mM NAM in THB or PBS, 1 h, 3 h, no phagocytic cells) was “no direct anti-staphylococcal activity; also recorded: No differences”. The “direct anti-staphylococcal activity (CFU vs control)” value (S. aureus; 50 mM NAM in THB, 12 h, 24 h) was “No difference in CFU”.
